Laboratory results from patent publication US20110311457A1, “METHODS FOR IMAGING VASCULAR INFLAMMATION USING IMPROVED NANOPARTICLE CONTRAST AGENTS” (NANOSCAN IMAGING, LLC, priority 2007, published 2011).

Columns and labels:
[1] = system: rabbit VX2-tumor; test: CT tumor perfusion imaging in a tumor bearing rabbit; type: in vivo; conditions: for HU value, ROI 1 Tumor vessel / HU value, ROI 2 Vessel / HU value, ROI 3 Tumor vital tissue / HU value, ROI 4 Tumor necrotic tissue / HU value, ROI 5 Whole tumor: 300 mgI/kg b.w.
Excerpt: The goal of the study was to explore the potential of different contrast media to visualize tumor perfusion.

[2] = Particle size during milling, XDC; type: physicochemical
Excerpt: In one embodiment, XDC (X-ray disc centrifuge sedimentometry) is used to measure particle size distribution. This is one of the most precise methods available for inorganic materials. The technique is based on the fact that particles of a different size (and of the same density) will take different times to travel between two points under the same force (e.g., gravity, centrifugal force): a larger particle will travel faster than a small particle. The derivation of the Stokes' equation for centrifugal sedimentation has been described many times in the literature (Thomas, J. C., and Fairhurst, D. (1991) Surface Phenomena and Fine Particles in Water-based Coatings and Paints. Sharma, M. K., and Micale, F. J. (eds), Plenum Press, New York). The relationship between size and the time taken is a square function. Thus, if a particle of (for example) one micron, takes one second to traverse a given distance, a 0.1 micron particle will take 100 seconds. With a distribution a particle sizes, the particles will effectively fractionate as they move under the proscribed (centrifugal) force. Because time can be measured extremely precisely, the sizes detected can be measured with great precision. The method used to determine the “amount” of material at any given size is X-ray absorbtion. For many inorganic materials, X-rays are absorbed in proportion to mass. The particle size density is therefore “mass-weighted.” Since, for a given particle density, mass is proportional to volume, a “volume-weighted” value (Dv) can be calculated for particle size density. Making the assumption that the particles are spherical, Dv can be transformed into either a surface-weighted value (Ds) or a number-weighted value (Dn). The latter number can be compared with the size determined from electron microscopy. For particle sizes in the colloidal domain (less than 1 micron), the assumption of sphericity is quite reasonable and becomes more so as the particle size gets smaller into the deep sub-micron (<100 nm) and the true nanometer (ca 10 nm) range. The size range that can be accommodated in XDC measurements is dictated only by the width of the particle size density, e.g., how long the measurement will take. The XDC method can be quite time consuming for a very broad particle size density.
(§1) N1177 was milled to the desired particle size distribution. The particle size during milling was monitored in a preliminary study by periodically measuring particle size using XDC and PCS instruments.

[3] = Particle size during milling, PCS; type: physicochemical
Excerpt: This is the most widely used technique for particle size density determination and there are two main variations: photon correlation spectroscopy (PCS), and Fraunhofer Diffraction (FD). The choice is dictated by the particle size range under investigation. PCS works for sizes from a few nanometers up to about 1 micron (1000 nm), and FD works from about 1 micron up to millimeters. Both methods are called “ensemble averaging methods.” This means that the two relevant pieces of information needed to describe the particle size density (the actual size and the amount of material at that size) need to be deconvoluted from a single measurement of the amount of light scattered. This involves application of extremely complex theory and equally complex deconvolution algorithms (Kerker, M. (1969) The Scattering of Light and other Electromagnetic Radiation. Academic Press, New York). Thus, both measurement variations are intrinsically low resolution: typically the best that can be achieved is to differentiate between two class sizes (Weiner, B. B. (1984) Modern Methods of Particle Sizing. Barth, H. (ed). Wiley-Interscience). A technical issue arises when the particle size density extends across the one micron point, because then the two different algorithms/theories need to be applied and these cannot be combined together. Attempts to do so result in artifacts in the particle size density such that commercial instruments smooth the data resulting in even less resolution. Being based on light scattering, the fundamental value obtained is an “intensity-weighted” number (Di). Transforming the Di value into a Dv value presents several challenges. The first is that, in addition to the assumption of sphereicity, both PCS and FD weight the intensity differently, and the second is that the transform necessitates application of scattering and efficiency corrections (Weiner, B. B., Fairhurst, D., and Tscharnuter, W. W. (1991) Particle Size Distribution II—Assessment and Characterization. Provder, T. (ed). ACS Symposium Series No. 472. American Chemical Society). Although such corrections can be calculated from Mie theory (Kerker, M. (1969) The Scattering of Light and other Electromagnetic Radiation. Academic Press, New York), they are particle size dependent and require knowledge of the optical properties (complex refractive index) of both the particles and the surrounding medium. The result is that the Dv value (and if further transforms are made to Ds and Dn) can be widely inaccurate. However, for quality control purposes the technique is extremely fast and, for measurements on the same material, extremely reproducible. Laser light scattering may also be referred to as Dynamic Light Scattering (DLS) and generally refers to the PCS technique. Asymmetrical flow field-flow-fractionation (AF4) is a newer method based on light scattering which may be employed. The benefit A4F is that the method is able to separate nanoparticle mixtures prior to DLS analysis.
as §1

[4] = system: erythrocytes; test: Influence on erythrocyte morphology (damage index) in vitro; type: cell-based, human; conditions: final conc. 52.86 mg I/mL, value in % of maximal damage index
Procedure: Effects on red blood cells can be monitored in vitro, by exposing human blood to contrast agents, monitoring the appearance of deformed erythrocytes and deriving a “damage index” (D.I.) immediately after exposure, 1 and 2 hours after incubation. Parameters: Morphological changes of blood erxthrocytes;

[5] = system: SPF-mice; conditions: established marketed contrast media, comparison value; cited from earlier work

Compound: CCOC(=O)CCCCCOC(=O)c1c(I)c(NC(C)=O)c(I)c(NC(C)=O)c1I [Compound N1177, 6-ethoxy-6-oxohexy-3,5-bis(acetylamino)-2,4,6-triiodobenzoate]
- HU value, ROI 1 Tumor vessel [1]: 81 HU
- HU value, ROI 2 Vessel [1]: 307 HU
- HU value, ROI 3 Tumor vital tissue [1]: 5 HU
- HU value, ROI 4 Tumor necrotic tissue [1]: 9 HU
- HU value, ROI 5 Whole tumor [1]: 13 HU
- Mean Size DN (XDC) ([2]; Milled Day 3): 84 nm
- Mean Size DV (XDC) ([2]; Milled Day 3): 148 nm
- Mean Size DN (XDC) ([2]; Milled Day 5): 79 nm
- Mean Size DV (XDC) ([2]; Milled Day 5): 143 nm
- Mean Size DN (XDC) ([2]; Milled Day 7): 77 nm
- Mean Size DV (XDC) ([2]; Milled Day 7): 138 nm
- Mean Size DN (XDC) ([2]; T = 0 (unmilled)): 173 nm
- Mean Size DV (XDC) ([2]; T = 0 (unmilled)): 424 nm
- Mean Effective Diameter (PCS) ([3]; Milled Day 3): 158 nm
- Mean Effective Diameter (PCS) ([3]; Milled Day 4): 151 nm
- Mean Effective Diameter (PCS) ([3]; Milled Day 5): 149 nm
- Mean Effective Diameter (PCS) ([3]; Milled Day 6): 148 nm
- Mean Effective Diameter (PCS) ([3]; Milled Day 7): 147 nm
- Mean Effective Diameter (PCS) ([3]; T = 0 (unmilled)): 236 nm

Compound: COCC(=O)Nc1c(I)c(C(=O)NCC(O)CO)c(I)c(C(=O)N(C)CC(O)CO)c1I (centres unmarked) [Ultravist]
- Damage index after incubation ([4]; 0 h): 31.2%
- Damage index after incubation ([4]; 1 h): 12.2%
- Damage index after incubation ([4]; 2 h): 24.4%
- HU value, ROI 1 Tumor vessel [1]: 95 HU
- HU value, ROI 2 Vessel [1]: 294 HU
- HU value, ROI 3 Tumor vital tissue [1]: 30 HU
- HU value, ROI 4 Tumor necrotic tissue [1]: 4 HU
- HU value, ROI 5 Whole tumor [1]: 37 HU
- tumor perfusion (intra-/extravasal) ([1]; dynamic CT 0-80 s): intra- and extravasal perfusion
- LD50 [5]: > 12 g Iodine/kg bw
